# In ChEMBL document CHEMBL1129550, “Synthesis and cyclic GMP phosphodiesterase inhibitory activity of a series of 6-phenylpyrazolo[3,4-d]pyrimidones” (J Med Chem, 1996):
# pEC50, pIC50: −log10 of the molar value.
# Tests used:
# [1] = target: cGMP-specific 3',5'-cyclic phosphodiesterase (Rattus norvegicus, UniProt O54735); test: Compound was tested for inhibition of stimulation of rat aortic smooth muscle cells (RSMC); type: functional
# [2] = target: T1, cGMP-specific 3',5'-cyclic phosphodiesterase (Homo sapiens, UniProt O76074); test: Inhibition of Phosphodiesterase 5 from human
# [3] = target: T1, cGMP-specific 3',5'-cyclic phosphodiesterase; test: Inhibition of Phosphodiesterase 5 from human at dose 10 uM
SMILES,pEC50 [1],pIC50 [2],inhibition [3]
CCCOc1ccccc1-c1nc(O)c2c(C)csc2n1,6.15,7.22,–
CCCOc1ccccc1-c1nc(O)c2scc(C)c2n1,5.82,7.10,–
CCCOc1ccc(-c2csc(-c3ccccc3)n2)cc1-c1nc2c(c(C)nn2C)c(=O)[nH]1,6.70,8.60,–
CCCOc1ccc(N(C)C)cc1-c1nc2c(c(C)nn2C)c(=O)[nH]1,6.52,8.30,–
CCCOc1ccccc1-c1nc2cnccc2c(=O)[nH]1,5.70,7.15,–
CCCOc1ccc(NS(C)(=O)=O)cc1-c1nc2c(c(C)nn2CC)c(=O)[nH]1,6.70,8.40,–
CCCCn1nc(C)c2c(=O)[nH]c(-c3ccccc3OCCC)nc21,6.05,8.22,–
CCCOc1ccc(N(C)C)cc1-c1nc2c(c(C)nn2CC)c(=O)[nH]1,5.82,8.40,–
CCCOc1ccc(-c2nc(C)cs2)cc1-c1nc2c(c(C)nn2C)c(=O)[nH]1,6.35,8.60,–
Cc1nn(C)c2nc(-c3ccccc3OC(C)C)[nH]c(=O)c12,6.00,7.40,–
CCC[S+]([O-])c1ccccc1-c1nc2c(c(C)nn2C)c(=O)[nH]1 (stereo unspecified),–,–,59%
CCCOc1ccccc1-c1nc(O)c2ccsc2n1,5.60,7.00,–
CCCOc1ccc(-c2csc(C)n2)cc1-c1nc2c(c(C)nn2C)c(=O)[nH]1,6.70,8.60,–
CCCOc1ccccc1-c1nc(O)c2c[nH]nc2n1,< 5.00,6.82,–
CCCOc1ccc(C(=O)CN2CCOCC2)cc1-c1nc2c(c(C)nn2C)c(=O)[nH]1,6.52,8.40,–
CCCOc1ccccc1-c1nc2c(c(C)nn2C(C)(C)C)c(=O)[nH]1,6.70,7.70,–
CCCOc1ccc(N)cc1-c1nc2c(c(C)nn2C)c(=O)[nH]1,6.52,8.00,–

SMILES,pEC50 [1],pIC50 [2],inhibition [3]
CCCOc1ccc(NC(=O)CN2CCN(C)CC2)cc1-c1nc2c(c(C)nn2C)c(=O)[nH]1,6.40,8.46,–
CCCOc1ccc(-c2csc(-c3ccccc3)n2)cc1-c1nc2c(c(C)nn2CC)c(=O)[nH]1,6.70,8.52,–
CCCOc1ccccc1-c1nc2nc[nH]c2c(=O)[nH]1,5.70,–,–
CCCOc1ccccc1-c1nc2c(c(C)nn2C)c(=O)[nH]1,6.70,–,–
CCCOc1ccccc1-c1nc2c(c(C)nn2CC(F)(F)F)c(=O)[nH]1,5.82,8.15,–
CCCOc1ccc(NC(N)=O)cc1-c1nc2c(c(C)nn2C)c(=O)[nH]1,6.05,8.70,–
CCCOc1ccccc1-c1nc(O)c2c(C)snc2n1,5.82,7.52,–
CCCOc1ccc(-c2cccs2)cc1-c1nc2c(c(C)nn2C)c(=O)[nH]1,6.52,8.30,–
CCCOc1ccccc1-c1nc(O)c2sccc2n1,6.00,7.30,–
CCOc1ccccc1-c1nc2c(c(C)nn2C)c(=O)[nH]1,5.70,7.52,–
CCCOc1ccc(NC(N)=S)cc1-c1nc2c(c(C)nn2C)c(=O)[nH]1,6.00,9.00,–
CCCOc1ccccc1-c1nc2c(c(C)nn2Cc2ccccc2)c(=O)[nH]1,6.46,7.15,–
CCCOc1ccc(NS(C)(=O)=O)cc1-c1nc2c(c(C)nn2C)c(=O)[nH]1,6.46,8.52,–
CCCOc1ccccc1-c1nc2onc(C)c2c(=O)[nH]1,< 5.00,7.00,–
CCCOc1ccc(Nc2nnc(N)[nH]2)cc1-c1nc2c(c(C)nn2C)c(=O)[nH]1,< 5.00,8.30,–
CCCOc1ccccc1-c1nc2ncncc2c(=O)[nH]1,5.12,6.52,–
CCCOc1ccccc1-c1nc2ccncc2c(=O)[nH]1,5.00,7.30,–

# Other lines, results leading:
pEC50 [1],pIC50 [2],inhibition [3],SMILES
> 8.00,8.70,–,CCCOc1ccc(NC(=O)c2ccc(F)cc2)cc1-c1nc2c(c(C)nn2C)c(=O)[nH]1
> 8.00,8.82,–,CCCOc1ccc(NC(=O)c2cccs2)cc1-c1nc2c(c(C)nn2C)c(=O)[nH]1
> 7.00,8.70,–,CCCOc1ccccc1-c1nc2c(c(C)nn2CC)c(=O)[nH]1
7.30,8.52,–,CCCOc1ccc(NC(=O)NCC)cc1-c1nc2c(c(C)nn2C)c(=O)[nH]1
7.00,8.70,–,CCCOc1ccc(NC(=O)OC)cc1-c1nc2c(c(C)nn2C)c(=O)[nH]1
> 7.00,8.52,–,CCCOc1ccc(-c2nccs2)cc1-c1nc2c(c(C)nn2C)c(=O)[nH]1
> 7.00,8.40,–,CCCOc1ccc(-c2ccc(C)s2)cc1-c1nc2c(c(C)nn2C)c(=O)[nH]1
7.40,9.10,–,CCCOc1ccc(NC(C)=O)cc1-c1nc2c(c(C)nn2C)c(=O)[nH]1
7.40,9.70,–,CCCOc1ccc(NC(=O)Nc2ccc(F)cc2)cc1-c1nc2c(c(C)nn2C)c(=O)[nH]1
> 8.00,8.77,–,CCCOc1ccc(-c2n[nH]c(-c3ccccc3)n2)cc1-c1nc2c(c(C)nn2CC)c(=O)[nH]1
7.22,8.52,–,CCCOc1ccc(NC(=S)NCC)cc1-c1nc2c(c(C)nn2C)c(=O)[nH]1
7.00,8.40,–,CCCOc1ccc([N+](=O)[O-])cc1-c1nc2c(c(C)nn2C)c(=O)[nH]1
7.30,10.00,–,CCCOc1ccc([N+](=O)[O-])cc1-c1nc2c(c(C)nn2CC)c(=O)[nH]1
> 7.00,8.70,–,CCCOc1ccc(-c2nc(C)cs2)cc1-c1nc2c(c(C)nn2CC)c(=O)[nH]1
7.70,8.15,–,CCCOc1ccc(N)cc1-c1nc2c(c(C)nn2CC)c(=O)[nH]1
7.52,8.70,–,CCCOc1ccc(NC(C)=O)cc1-c1nc2c(c(C)nn2CC)c(=O)[nH]1
> 7.00,–,–,CCCOc1ccc(-c2csc(C)n2)cc1-c1nc2c(c(C)nn2CC)c(=O)[nH]1
7.40,8.70,–,CCCOc1ccc(NC(=S)NC(=O)OCC)cc1-c1nc2c(c(C)nn2C)c(=O)[nH]1
> 7.00,8.70,–,CCCOc1ccc(-c2csc(-c3cccnc3)n2)cc1-c1nc2c(c(C)nn2CC)c(=O)[nH]1
> 7.00,7.70,–,CCCOc1ccc(-c2n[nH]c(-c3ccccc3)n2)cc1-c1nc2c(c(C)nn2C)c(=O)[nH]1
6.82,9.00,–,CCCOc1ccccc1-c1nc2c(c(C)nn2CCC)c(=O)[nH]1
